# Tests used:
# Assay in all cases: viability relative to DMSO control (fraction); higher = less drug effect (more viable cells)
# Settings in all cases: 48 h
# [1] = tested on: primary AML patient cells (S037)
# Procedure, shortened: (§1)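 Viability was measured as CellTiter-Glo luminescence relative to the median of 16 inner DMSO wells. Primary mononuclear tumour cells, fresh or cryopreserved, were Ficoll-isolated from blood or bone marrow or taken from processed lymph node. They were seeded at 4 × 10^4 cells per well into 384-well plates holding pre-plated compounds at five concentrations, one well each, and kept in RPMI-1640 with penicillin/streptomycin, L-glutamine and human serum at 37 °C and 5% CO2 for 48 h.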
# [2] = tested on: primary AML patient cells (S025)
# Procedure, shortened: as §1
# [3] = tested on: primary AML patient cells (S072)
# Procedure, shortened: as §1
# [4] = tested on: primary AML patient cells (S079)
# Procedure, shortened: as §1
# [5] = tested on: primary MCL patient cells (S053)
# Procedure, shortened: as §1
# [6] = tested on: primary ALL patient cells (S048)
# Procedure, shortened: as §1
# [7] = tested on: primary AML patient cells (S017)
# Procedure, shortened: as §1
# [8] = tested on: primary AML patient cells (S056)
# Procedure, shortened: as §1
# [9] = tested on: primary AML patient cells (S012)
# Procedure, shortened: as §1
# [10] = tested on: primary AML patient cells (S019)
# Procedure, shortened: as §1
# [11] = tested on: primary CLL patient cells (S031)
# Procedure, shortened: as §1
# [12] = tested on: primary AML patient cells (S002)
# Procedure, shortened: as §1
# [13] = tested on: primary FL patient cells (S022)
# Procedure, shortened: as §1
# [14] = tested on: primary AML patient cells (S089)
# Procedure, shortened: as §1
# [15] = tested on: primary BL patient cells (S005)
# Procedure, shortened: as §1
# [16] = tested on: primary AML patient cells (S085)
# Procedure, shortened: as §1
# [17] = tested on: primary AML patient cells (S091)
# Procedure, shortened: as §1
# [18] = tested on: primary AML patient cells (S071)
# Procedure, shortened: as §1
# [19] = tested on: primary MCL patient cells (S068)
# Procedure, shortened: as §1
# [20] = tested on: primary CLL patient cells (S043)
# Procedure, shortened: as §1
smiles,measurement,setting,value
CC1(COc2ccc3c(c2)ncn3-c2ccc3cccc(N4CCC(N)CC4)c3n2)COC1 [Crenolanib],viability,[1]; 0.016 µM,1.06
same,viability,[1]; 0.08 µM,1.09
same,viability,[1]; 0.4 µM,1.04
same,viability,[1]; 2 µM,0.811
same,viability,[1]; 10 µM,0.572
same,viability,[2]; 0.016 µM,0.983
same,viability,[2]; 0.08 µM,1.12
same,viability,[2]; 0.4 µM,1.29
same,viability,[2]; 2 µM,1.29
same,viability,[2]; 10 µM,0.173
same,viability,[3]; 0.016 µM,0.891
same,viability,[3]; 0.08 µM,0.982
same,viability,[3]; 0.4 µM,0.793
same,viability,[3]; 2 µM,0.742
same,viability,[3]; 10 µM,0.0532
same,viability,[4]; 0.016 µM,1.02
same,viability,[4]; 0.08 µM,1.17
same,viability,[4]; 0.4 µM,0.996
same,viability,[4]; 2 µM,0.889
same,viability,[4]; 10 µM,0.0548
same,viability,[5]; 0.016 µM,1.03
same,viability,[5]; 0.08 µM,1.07
same,viability,[5]; 0.4 µM,1.12
same,viability,[5]; 2 µM,0.963
same,viability,[5]; 10 µM,0.348
same,viability,[6]; 0.016 µM,0.85
same,viability,[6]; 0.08 µM,0.851
same,viability,[6]; 0.4 µM,0.797
same,viability,[6]; 2 µM,0.554
same,viability,[6]; 10 µM,0.418
same,viability,[7]; 0.016 µM,1.05
same,viability,[7]; 0.08 µM,1.09
same,viability,[7]; 0.4 µM,1.12
same,viability,[7]; 2 µM,1.16
same,viability,[7]; 10 µM,0.109
same,viability,[8]; 0.016 µM,0.613
same,viability,[8]; 0.08 µM,1.35
same,viability,[8]; 0.4 µM,0.631
same,viability,[8]; 2 µM,0.73
same,viability,[8]; 10 µM,0.157
same,viability,[9]; 0.016 µM,0.935
same,viability,[9]; 0.08 µM,0.964
same,viability,[9]; 0.4 µM,0.978
same,viability,[9]; 2 µM,0.959
same,viability,[9]; 10 µM,0.528
same,viability,[10]; 0.016 µM,0.927
same,viability,[10]; 0.08 µM,1.17
same,viability,[10]; 0.4 µM,0.995
same,viability,[10]; 2 µM,1.19
same,viability,[10]; 10 µM,0.148
same,viability,[11]; 0.016 µM,1.09
same,viability,[11]; 0.08 µM,1.13
same,viability,[11]; 0.4 µM,1.02
same,viability,[11]; 2 µM,0.305
same,viability,[11]; 10 µM,0.0182
same,viability,[12]; 0.016 µM,0.956
same,viability,[12]; 0.08 µM,1.13
same,viability,[12]; 0.4 µM,1.3
same,viability,[12]; 2 µM,1.5
same,viability,[12]; 10 µM,0.426
same,viability,[13]; 0.016 µM,0.991
same,viability,[13]; 0.08 µM,1.07
same,viability,[13]; 0.4 µM,0.966
same,viability,[13]; 2 µM,0.743
same,viability,[13]; 10 µM,0.0846
same,viability,[14]; 0.016 µM,0.824
same,viability,[14]; 0.08 µM,0.612
same,viability,[14]; 0.4 µM,0.835
same,viability,[14]; 2 µM,0.835
same,viability,[14]; 10 µM,0.0567
same,viability,[15]; 0.016 µM,0.9
same,viability,[15]; 0.08 µM,0.959
same,viability,[15]; 0.4 µM,0.896
same,viability,[15]; 2 µM,0.913
same,viability,[15]; 10 µM,0.414
same,viability,[16]; 0.016 µM,1.13
same,viability,[16]; 0.08 µM,1.3
same,viability,[16]; 0.4 µM,2.22
same,viability,[16]; 2 µM,1.82
same,viability,[16]; 10 µM,0.0652
same,viability,[17]; 0.016 µM,1.03
same,viability,[17]; 0.08 µM,1.32
same,viability,[17]; 0.4 µM,1.37
same,viability,[17]; 2 µM,1.58
same,viability,[17]; 10 µM,0.101
same,viability,[18]; 0.016 µM,0.672
same,viability,[18]; 0.08 µM,0.712
same,viability,[18]; 0.4 µM,0.778
same,viability,[18]; 2 µM,1.38
same,viability,[18]; 10 µM,0.103
same,viability,[19]; 0.016 µM,0.812
same,viability,[19]; 0.08 µM,0.846
same,viability,[19]; 0.4 µM,0.572
same,viability,[19]; 2 µM,0.417
same,viability,[19]; 10 µM,0.031
same,viability,[20]; 0.016 µM,0.963
same,viability,[20]; 0.08 µM,1.15
same,viability,[20]; 0.4 µM,1.17
same,viability,[20]; 2 µM,1.06
same,viability,[20]; 10 µM,0.0329

# Reference: the supplement of paper PMC10733146
